15 compounds from patent US12054495B2, “Substituted macrocyclic compounds and related methods of treatment” (Alkermes, Inc., priority 2019, dated 2024) can be followed below.

pEC50: −log10 of the molar value.

One data set relates to MDR1. Description: MDCK-MDR1 permeability assay. Type of data set: in vitro ADME. To be noted: dog; for Papp A→B at 2 h, 3 μM: MDCK-MDR1, MDCK-MDR1 cells, apical to basolateral, 3 μM test compound, 2 hours at 37 degrees C; for efflux ratio at 2 h, 3 μM: MDCK-MDR1, Papp (basolateral to apical) divided by Papp (apical to basolateral), MDCK-MDR1 cells, read-out: Efflux ratio (ER). As to the method: The bidirectional permeability (Apical to Basal and Basal to Apical directions) of test compounds in MDCK-MIDR1 cells were evaluated using MDCK-MIDR1 cells seeded in Solvo PreadyPort™ MIDCK 96-well plate. Once the plate was received from ReadyCell (Barcelona, Spain), it was treated as per PreadyPort™ user's manual.
For the Apical to Basolateral (A→B) permeability, 80 μL of test compound (3 μM) co-dosed with LY (Lucifer Yellow) (100 μM) in HBSS (Hank's Balanced Salt Solution) assay buffer was added to the donor side (A) while 250 μL of HBSS buffer was added to the receiver side (B). For the Basolateral to Apical (B→A) permeability, 255 μL of test compound (3 μM) in HBSS assay buffer was added to the donor side (B) while 75 μL of HBSS buffer containing LY (100 μM) was added to the receiver side (A).
The plate was placed in an incubator set at 37 degrees C. After 10 minutes of pre-warming, 5 μL aliquot was taken from donor compartment and set aside as the dosing solution. The MDCK-MDR1 incubation plate was placed back into the incubator for 2 hours of incubation at 37 degrees C. After 2 hours of incubation, 25 μL and 5 μL aliquots were removed from the receiver and donor sides, respectively. To the 5 μL aliquots taken from the donor sides (before and after a 2-hour incubation) were diluted with 20 μL of the HBSS buffer. All samples were mixed with 150 μL with acetonitrile containing internal standard (IS) and 200 μL water, and analyzed by LC-MS/MS.
The apparent permeability (Papp) was calculated using the following formula: Papp=dQ/dt×1/A×C0 where: • dQ/dt: amount of translocated material over incubation time (nmol/s) • A: area of insert (0.14 cm^2 for PreadyPort™ MDR1-96) • C0: initial concentration of product applied in apical (A→B) or basal (B→A) compartment (nmol/mL)
The efflux ratio (ER) was measured by dividing the Papp (basolateral to apical direction) by Papp (apical to basolateral direction). It is a general measure of the involvement of active processes. An ER>2 is considered positive for active transport.
The data reported in Table 3 were obtained according to the MDCK-MIDR1 permeability assay described above.

The next data set concerns human hepatocytes. Description: Hepatocytes stability assay (human hepatocytes). Type of data set: in vitro ADME. To be noted: scaled hepatic clearance divided by liver blood flow, fu assumed unity. How it is done: (§1) In vitro metabolic stability was assessed using cryopreserved hepatocytes from male Sprague Dawley rats and a pool of 50 mixed gender humans (BioIVT, Baltimore, MD). The incubation mixtures were prepared by mixing 250 μL of pre-warmed KHB (Krebs-Henseleit buffer) containing 2×10^6 cell/mL of hepatocytes with 250 μL of pre-warmed KHB buffer containing 2 μM of test compounds in a 48-well plate, giving a final concentration of 1 μM test compound (0.1% DMSO) and 1×10^6 cell/mL of hepatocytes. The reaction mixture was incubated at 37 degrees C. A 50 μL aliquot of incubation mixture was taken at time points (0, 15, 30, 60, 120 and 240 minutes) and transferred into a 96-well plate containing 300 μL ice-cold acetonitrile (containing 30 ng/mL of labetalol and 10 ng/mL of Naltrexone-d3 as internal standards) and immediately placed in ice to terminate the reaction. Samples were centrifuged, and supernatants were transferred into 96-well plates for liquid chromatography with tandem mass spectrometry (LC-MS/MS) analysis to monitor the depletion of the test compound.
(§2) Data was calculated as percent remaining by assuming zero-minute time point peak area ratio (analyte/IS) as 100% and dividing remaining time point peak area ratios by zero-minute time point peak area ratio. Data were fitted to a first-order decay model to determine half-life. From a plot of log (ln) peak area against time, the slope of the line was determined. Subsequently, half-life (T1/2) and intrinsic clearance (CLint) were calculated using the equations below: Elimination rate constant (k)=(−slope) Half-life (T1/2)min=0.693/k Intrinsic Clearance (CLint) (mL/min/million cells)=(V×0.693)/T1/2 V=incubation volume mL/number of cells The in vitro T1/2 was converted to in vitro intrinsic clearance (CLint,hep) in units of mL/min/kg using the formula shown below:
(§3) [formula] The in vitro intrinsic clearance (CLint,hep) was scaled to in vivo hepatic clearance (CL,hep) using the following equation which was adapted from a well-stirred model.
(§4) [formula] where Q is the liver blood flow and fu is the fraction unbound (assumed to be unity in this case). All parameters used in the calculation are shown below (Table 4).
(§5) The extraction ratio (ER) was calculated by dividing the hepatic clearance of a compound to the liver blood flow. The data reported in Table 5 were obtained according to the human hepatocytes stability assay described above.

Data set [1] is described as follows: Hepatocytes stability assay (human hepatocytes). Type of data set: in vitro ADME. The conditions noted are these: both sexes, cryopreserved hepatocytes, 1 μM test compound, 1×10^6 cell/mL, 37 degrees C, read-out: CLint (μL/min/million cells). As to the method: as §1, §2, §3, §4, §5
For data set [2], the target named is T1, human orexin-2 receptor (OX2R) (Homo sapiens, UniProt O43614).
T1 construct: expressed in transfected cells
T1 sequence (O43614 1-444): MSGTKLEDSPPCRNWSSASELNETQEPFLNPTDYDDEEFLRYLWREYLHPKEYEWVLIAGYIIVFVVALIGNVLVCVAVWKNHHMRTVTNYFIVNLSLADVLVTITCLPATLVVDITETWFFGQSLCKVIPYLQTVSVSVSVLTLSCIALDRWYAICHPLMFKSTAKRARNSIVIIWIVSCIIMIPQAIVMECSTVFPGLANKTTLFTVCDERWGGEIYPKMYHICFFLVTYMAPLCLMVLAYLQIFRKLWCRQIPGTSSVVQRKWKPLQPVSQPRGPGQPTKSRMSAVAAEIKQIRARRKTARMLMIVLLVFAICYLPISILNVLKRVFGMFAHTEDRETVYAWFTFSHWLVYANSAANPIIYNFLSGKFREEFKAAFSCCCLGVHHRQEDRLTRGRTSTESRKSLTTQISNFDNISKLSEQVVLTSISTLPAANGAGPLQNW
Description: Human OX2R IP1 assay. The conditions noted are these: T-Rex CHO cells stably overexpressing human OX2R, IP1 accumulation, 1 hr at 37 degrees C; mean EC50; ∧ = racemic mixture. In kind it is cell-based. As to the method: T-Rex CHO cells stably overexpressing the human orexin-2 receptor (OX2R) were induced overnight with 1 μg/mL of doxycycline in a T225 flask. 24 hours post induction, cells were lifted with accutase and plated into a 384-well proxy plate at 30,000 cells/well. Cells were then treated with different test compounds in 1× stimulation buffer containing 10 mM Hepes, 1 mM CaCl2), 0.5 mM MgCl2, 4.2 mM KCl, 146 mM NaCl, 5.5 mM glucose, and 50 mM LiCl, pH 7.4, for 1 hr at 37 degrees C. Following incubation, the reaction was terminated by the addition of detection mix, which is composed of IP1-d2 and anti-IP1-cryptate diluted in lysis buffer as well as 1× stimulation buffer. The plates were allowed to incubate for 1 hour at room temperature and were then read in the EnVision® multimode plate reader, measuring inositol phosphate levels.
Cisbio IP1 is a cell-based functional assay quantifying the accumulation of inositol monophosphate (IP), a metabolite released as a result of orexin 2 receptor activation through the phospholipase C-Gq signaling pathway. This is a competitive immunoassay in which the IP1 produced by the cells upon receptor activation competes with the IP1 analog coupled to the d2 fluorophore (acceptor) for binding to an anti-IP1 monoclonal antibody labeled with Eu cryptate (donor). The measured HTRF-FRET based signal is inversely proportional to the IP1 concentration produced.
The EC50 values reported in Table 2 were obtained according to the human OX2R IP1 assay described above. Data are the mean EC50 values ±S.E.M. The compound methyl (2R,3S)-3-((methylsulfonyl)amino)-2-(((cis-4-phenylcyclohexyl)oxy)methyl)-piperidine-1-carboxylate is a reference compound which is disclosed in Example 5 of PCT publication no. WO2017/135306.

Usually Papp A→B stands for how fast a substance crosses the layer from the apical side. As usually defined, the pEC50 is the negative decadic logarithm of the EC50, by convention in mol/L. Consider `CS(=O)(=O)N[C@@H]1CCCN2C(=O)COc3cccnc3[C@H]3CC[C@H](CC3)OC[C@H]12` (racemic) [Compound 15], for which, in the data set on MDR1, the apical-to-basolateral permeability (Papp A→B) at 2 h, 3 μM was 0.08 ×10⁻⁶ cm/s and the efflux ratio at 2 h, 3 μM turned out to be 22. Moreover, the “Extraction Ratio (ER)” value in the data set on human hepatocytes is on record as less than 0.22. The hepatocyte CLint at 1 μM in data set [1] is less than 1.9 µL/min/1e6 cells. Also, the pEC50 in data set [2] was 6.00 to 7.00.
On to `CS(=O)(=O)N[C@@H]1CCCN2C(=O)COc3ccncc3[C@H]3CC[C@H](CC3)OC[C@H]12` (racemic) [Compound 45], for which, in the data set on MDR1, the Papp A→B at 2 h, 3 μM worked out at 0.15 ×10⁻⁶ cm/s and the efflux ratio at 2 h, 3 μM was 12. Moreover, in the data set on human hepatocytes, the “Extraction Ratio (ER)” value is less than 0.22. For the same compound, in data set [1], the hepatocyte CLint at 1 μM was less than 1.9 µL/min/1e6 cells. The pEC50 in data set [2] is 6.00 to 7.00.
In the case of `CS(=O)(=O)N[C@@H]1CCCN2C(=O)COc3cnccc3[C@H]3CC[C@H](CC3)OC[C@H]12` (racemic) [Compound 47], in the data set on MDR1, the Papp A→B at 2 h, 3 μM was found to be 0.09 ×10⁻⁶ cm/s and the efflux ratio at 2 h, 3 μM came out at 49. The “Extraction Ratio (ER)” value with human hepatocytes was determined as 0.31. Moreover, the hepatocyte CLint at 1 μM in data set [1] was determined as 3 µL/min/1e6 cells. In addition, in data set [2], the negative-log EC50 (pEC50) was more than 7.00.
Take `CS(=O)(=O)N[C@H]1CCCN2C(=O)COc3ccccc3C3CC[C@@H](CO3)OCC12` (stereo partly shown) [Compound 8]: in the data set on MDR1, the apical-to-basolateral permeability (Papp A→B) at 2 h, 3 μM stood at 0.48 ×10⁻⁶ cm/s and the efflux ratio at 2 h, 3 μM was found to be 3.8. Further, in the data set with human hepatocytes, the “Extraction Ratio (ER)” value stood at 0.46. Further, the hepatocyte CLint at 1 μM in data set [1] stood at 5.8 µL/min/1e6 cells. The pEC50 in data set [2] is more than 7.00.
`CS(=O)(=O)N[C@H]1CCN2C(=O)COc3c(F)cccc3C3CCC(CC3)OCC12` (stereo partly shown) [Compound 42]: in the data set with MDR1, the Papp A→B at 2 h, 3 μM turned out to be 11 ×10⁻⁶ cm/s and the efflux ratio at 2 h, 3 μM was 1.3. Also, the “Extraction Ratio (ER)” value in the data set on human hepatocytes came to 0.89. The hepatocyte CLint at 1 μM in data set [1] was 52 µL/min/1e6 cells.
In the case of `CS(=O)(=O)N[C@H]1CCN2C(=O)COc3c(F)cc(F)cc3C3CCC(CC3)OCC12` (stereo partly shown) [Compound 43], in the data set on MDR1, the Papp A→B at 2 h, 3 μM turned out to be 12 ×10⁻⁶ cm/s and the efflux ratio at 2 h, 3 μM amounted to 1.1. The “Extraction Ratio (ER)” value in the data set with human hepatocytes is 0.83. The hepatocyte CLint at 1 μM in data set [1] stood at 34 µL/min/1e6 cells.
The matching figures for `CC1(C)CN2CCC[C@H](NS(C)(=O)=O)C2COC2CCC(CC2)c2ccccc2O1` (stereo partly shown) [Compound 44]: 6.3 ×10⁻⁶ cm/s, 1.9, 0.91 and 65 µL/min/1e6 cells.
The matching figures for `CS(=O)(=O)N[C@H]1CCCN2C(=O)C(F)(F)Oc3c(F)cc(F)cc3C3CCC(CC3)OCC12` (stereo partly shown) [Compound 52]: 1.2 ×10⁻⁶ cm/s, 12, 0.87 and 44 µL/min/1e6 cells.
The matching figures for `CS(=O)(=O)N[C@H]1CCN2C(=O)C(F)(F)Oc3ccccc3C3CCC(CC3)OCC12` (stereo partly shown) [Compound 53]: 2.8 ×10⁻⁶ cm/s, 7.9, 0.92 and 19 µL/min/1e6 cells.
For `CS(=O)(=O)N[C@H]1CCN2C(=O)C(F)(F)Oc3c(F)cc(F)cc3C3CCC(CC3)OCC12` (stereo partly shown) [Compound 54], in the data set on MDR1, the Papp A→B at 2 h, 3 μM is 2.6 ×10⁻⁶ cm/s and the efflux ratio at 2 h, 3 μM came to 7.3. In addition, the “Extraction Ratio (ER)” value in the data set with human hepatocytes is recorded as 0.89. In addition, in data set [1], the hepatocyte CLint at 1 μM came to 56 µL/min/1e6 cells.
Take `CS(=O)(=O)N[C@H]1CCCN2C(=O)COc3ccc(Br)cc3C3CCC(CC3)OCC12` (stereo partly shown) [Compound 57]: in the data set on MDR1, the Papp A→B at 2 h, 3 μM amounted to 0.16 ×10⁻⁶ cm/s and the efflux ratio at 2 h, 3 μM was 51. Also, in the data set on human hepatocytes, the “Extraction Ratio (ER)” value was determined as 0.24. Also, the hepatocyte CLint at 1 μM in data set [1] came out at 2.1 µL/min/1e6 cells.
The matching figures for `CS(=O)(=O)N[C@H]1CCCN2CCOc3c(F)cc(F)cc3C3CCC(CC3)OCC12` (stereo partly shown) [Compound 58]: 1.5 ×10⁻⁶ cm/s, 10, 0.90 and 62 µL/min/1e6 cells.
With `CS(=O)(=O)N[C@H]1CCCN2CCOc3ccc(Cl)cc3C3CCC(CC3)OCC12` (stereo partly shown) [Compound 61], in the data set on MDR1, the Papp A→B at 2 h, 3 μM was found to be 2 ×10⁻⁶ cm/s and the efflux ratio at 2 h, 3 μM was 5.5. Moreover, the “Extraction Ratio (ER)” value in the data set on human hepatocytes worked out at 0.83. In addition, in data set [1], the hepatocyte CLint at 1 μM came out at 33 µL/min/1e6 cells.
The matching figures for `CS(=O)(=O)N[C@H]1CCCN2C(=O)COc3ncc(F)cc3C3CCC(CC3)OCC12` (stereo partly shown) [Compound 64]: 0.83 ×10⁻⁶ cm/s, 30, 0.57 and 9 µL/min/1e6 cells.
The matching figures for `CS(=O)(=O)N[C@H]1CCCN2CCOc3ncccc3C3CCC(CC3)OCC12` (stereo partly shown) [Compound 65]: 15 ×10⁻⁶ cm/s, 0.5, 0.84 and 34 µL/min/1e6 cells.
